Measured values: paper PMC9960553, ““Dual Anta-Inhibitors” of the A2A Adenosine Receptor and Casein Kinase CK1delta: Synthesis, Biological Evaluation, and Molecular Modeling Studies” (Pharmaceuticals, 2023)
Several values for one entry are separate records, joined by “and”; a condition that tells them apart may be missing. Equal values may be shown once.

What was measured:
[1] = molecular target: T1, human recombinant A1AR (Homo sapiens, UniProt P30542); assay: [3H]CCPA displacement binding in CHO cell membranes; details: mean ± standard error, read-out: KiA1
T1 construct: expressed in transfected cells; host or cells: CHO cells (membranes)
T1 sequence (P30542 1-326): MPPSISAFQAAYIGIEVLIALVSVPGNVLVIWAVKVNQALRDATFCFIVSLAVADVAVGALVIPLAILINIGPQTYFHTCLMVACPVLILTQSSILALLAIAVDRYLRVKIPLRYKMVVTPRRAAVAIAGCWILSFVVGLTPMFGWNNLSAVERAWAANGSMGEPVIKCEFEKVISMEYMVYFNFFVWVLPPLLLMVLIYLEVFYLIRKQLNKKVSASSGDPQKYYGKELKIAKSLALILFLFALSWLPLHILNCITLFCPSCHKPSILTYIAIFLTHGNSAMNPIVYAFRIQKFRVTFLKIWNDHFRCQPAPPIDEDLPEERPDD
Procedure: (§1) Compounds 5, 6, 8–12, 15–21, and 23–25 were evaluated in binding studies at human recombinant A1, A2A, and A3 ARs, stably transfected in Chinese hamster ovary (CHO) cells. [^3H]CCPA (2-chloro-N^6-cyclopentylAdo), [^3H]NECA (5’-N-ethylcarboxamidoAdo), and [^3H]HEMADO (2-hexynyl-N^6-methylAdo) were used as the, respective, radioligands. All compounds were also tested at the A2BARs by inhibition of NECA-stimulated adenylyl cyclase activity, using the GloSensor cAMP assay, but none of them were active at a concentration up to 30 μM [35]. The results, together with the data of the reference adenine derivative 1, are reported in Table 2 as Ki values in μM (± standard errors). In the table, the IC50 values (μM) of the CK1δ inhibitory activity are also indicated. […] We called the compounds endowed with receptor antagonist behavior combined with an enzyme inhibitory activity “dual anta-inhibitors”.
(§2) All of the pharmacological methods followed the procedures as described earlier. In brief, the membranes for radioligand binding were prepared from CHO cells stably transfected with human adenosine receptor subtypes through two centrifugations at different speeds. The first low-speed […] centrifugation allowed for the removal of cell fragments and nuclei, while the second, performed at high speed (100,000× g), allowed for the precipitation of the crude membrane fractions. The resulting membrane pellet was resuspended in the buffer used for the respective binding experiments, frozen in liquid nitrogen, and stored in aliquots at −80 °C.
(§3) The binding affinity of the novel compounds was evaluated using radioligand competition experiments in CHO cells stably expressing hA1AR, hA2AAR, hA3AR subtypes, as early described. Results were expressed as Ki values (dissociation constants), which were calculated with the program GraphPad (GraphPad Software, San Diego, CA, USA). Each concentration was tested three–five times in duplicate and the values given as the mean ± standard error (S.E.). The potency of compounds at the hA2BAR (expressed on CHO cells) was determined through a GloSensor cAMP Assay.

[2] = molecular target: T2, human recombinant A3AR (Homo sapiens, UniProt P0DMS8); assay: [3H]HEMADO displacement binding in CHO cell membranes; details: mean ± standard error, read-out: KiA3
T2 construct: expressed in transfected cells; host or cells: CHO cells (membranes)
T2 sequence (P0DMS8 1-318): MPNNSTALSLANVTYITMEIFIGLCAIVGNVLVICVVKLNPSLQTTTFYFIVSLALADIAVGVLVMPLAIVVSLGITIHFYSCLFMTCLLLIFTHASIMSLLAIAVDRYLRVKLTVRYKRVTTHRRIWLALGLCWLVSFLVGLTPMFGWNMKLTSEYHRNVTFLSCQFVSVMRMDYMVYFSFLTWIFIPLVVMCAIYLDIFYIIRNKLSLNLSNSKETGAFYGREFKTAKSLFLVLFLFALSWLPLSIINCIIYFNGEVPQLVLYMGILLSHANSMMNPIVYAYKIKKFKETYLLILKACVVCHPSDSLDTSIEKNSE
Procedure: as §1, §2, §3

[3] = molecular target: T3, truncated CK1δ (Homo sapiens, UniProt P48730); assay: CK1δ luminescent kinase assay (Kinase-Glo); assay type: biochemical; details: for remaining activity at 10 µM: read-out: % Residual Activity at 10 μM ± sd; for remaining activity at 40 µM: compound at 40 μM, read-out: % Residual Activity at 40 μM ± sd; for IC50: truncated CK1δ, ATP 2 μM, read-out: IC50 (μM), CK1δ inhibition
T3 construct: recombinant human, GST-tagged, aa 1-294; GST; purchased Merck Millipore, Merck KGaA, Darmstadt, Germany
T3 sequence (P48730 1-294): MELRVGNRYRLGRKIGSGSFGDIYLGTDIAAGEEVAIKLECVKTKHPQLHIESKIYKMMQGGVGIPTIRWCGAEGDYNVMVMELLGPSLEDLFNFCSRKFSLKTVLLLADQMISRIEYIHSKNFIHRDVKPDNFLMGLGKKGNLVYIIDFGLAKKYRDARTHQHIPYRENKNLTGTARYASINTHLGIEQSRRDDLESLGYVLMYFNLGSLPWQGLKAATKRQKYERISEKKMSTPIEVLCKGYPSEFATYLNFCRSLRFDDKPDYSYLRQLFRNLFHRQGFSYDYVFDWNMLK
Procedure: Luminescent assays were performed in white 96-well plates in a 40 μL final volume with buffer containing 50 mM HEPES (pH 7.5), 1 mM EDTA, 1 mM EGTA, and 15 mM MgCl2. In a typical assay, 10 μL of inhibitor solution (desired concentrations were obtained by diluting a starting 10 mM solution in DMSO) and 10 μL of enzyme solution were added to the well, followed by 20 μL of assay buffer containing casein substrate (Sigma-Aldrich, Merck KGaA, Darmstadt, Germany, casein solution from bovine milk, 5% in water) and ATP, at a final concentration of 0.05% and 2 μM, respectively. […] After 60 min of incubation at 30 °C, the enzymatic reactions were stopped with the addition of 40 μL of KinaseGlo reagent. […] Data were analyzed using Excel and GraphPad Prism software (version 8.0).

[4] = molecular target: T4, human recombinant A2AAR (Homo sapiens, UniProt P29274); assay: [3H]NECA displacement binding in CHO cell membranes; details: mean ± standard error, read-out: KiA2A
T4 construct: expressed in transfected cells; host or cells: CHO cells (membranes)
Procedure: as §1, §2, §3

[5] = CK1δ residual activity, compound at 10 μM

T4 sequence (P29274 whole entry): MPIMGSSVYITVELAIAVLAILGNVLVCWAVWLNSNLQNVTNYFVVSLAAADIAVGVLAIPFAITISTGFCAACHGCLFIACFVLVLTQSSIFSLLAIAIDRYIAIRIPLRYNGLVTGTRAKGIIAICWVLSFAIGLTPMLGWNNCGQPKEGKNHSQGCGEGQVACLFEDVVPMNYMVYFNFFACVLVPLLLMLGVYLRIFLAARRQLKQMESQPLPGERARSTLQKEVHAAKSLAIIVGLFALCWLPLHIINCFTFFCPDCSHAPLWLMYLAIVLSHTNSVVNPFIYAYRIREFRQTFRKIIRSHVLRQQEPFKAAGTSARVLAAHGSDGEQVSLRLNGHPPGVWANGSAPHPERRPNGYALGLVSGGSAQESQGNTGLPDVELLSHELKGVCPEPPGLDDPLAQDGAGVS

SMILES | Ki [1] | Ki [2] | remaining activity at 10 µM [3, 5] | remaining activity at 40 µM ([3]; CK1δ residual activity) | IC50 [3] | Ki [4] | melting point | % Residual Activity at 10 μM ± sd ([3]; CK1δ residual activity, compound at 10 μM, 10 µM)
Nc1nc(Cl)nc2c1ncn2C1CCCC1 [Compound 1, 2-chloro-9-cyclopentyl-9H-purin-6-amine] | 1.89 ± 0.16 µM | 0.631 ± 0.062 µM | 13 ± 7.4% | 0.7 ± 0.4% | 5.25 µM and 5.2 µM | 0.465 ± 0.129 µM | 121 to 122 °C | –
Nc1nc(Cl)nc2c1ncn2C1CCC1 [Compound 5, 2-chloro-9-cyclobutyl-9H-purin-6-amine] | 1.53 ± 0.265 µM | – | 37 ± 3.8% | 43 ± 3.2% | 5.25 ± 0.9 µM | 0.558 ± 0.151 µM | 117 to 119 °C | –
Nc1nc(Cl)nc2c1ncn2C1CCCCC1 [Compound 6, 2-chloro-9-cyclohexyl-9H-purin-6-amine] | – | – | > 50% | 30 ± 0.2% | > 10 µM | – | 125 to 126 °C | 52 ± 3.0%
Nc1nc(Cl)nc2c1nc(-c1ccco1)n2C1CCCC1 [Compound 8, 2-chloro-9-cyclopentyl-8-(furan-2-yl)-9H-purin-6-amine] | 0.118 ± 0.01 µM | 0.14 ± 0.035 µM | – | 86 ± 1.6% | > 40 µM | 0.007 µM | 152 to 153 °C | –
Nc1nc(NCc2ccccc2)nc2c1ncn2C1CCCC1 [Compound 10, N^2-benzyl-9-cyclopentyl-9H-purine-2,6-diamine] | 3.96 ± 0.8 µM | 0.298 ± 0.047 µM | 48 ± 3.5% | 30 ± 4.1% | 5.3 ± 1 µM | 0.157 ± 0.04 µM | – | –
Nc1nc(NCCc2ccccc2)nc2c1ncn2C1CCCC1 [Compound 11, 9-Cyclopentyl-N^2-phenethyl-9H-purine-2,6-diamine] | 0.58 ± 0.046 µM | 0.049 ± 0.008 µM | – | 88 ± 2.9% | > 40 µM | 0.012 ± 0.003 µM | – | –
Clc1nc(NCc2nc3ccccc3[nH]2)c2ncn(C3CCCC3)c2n1 [Compound 15, N-((1H-benzo[d]imidazol-2-yl)methyl)-2-chloro-9-cyclopentyl-9H-purin-6-amine] | > 30 µM | 1.138 ± 0.004 µM | 24 ± 14% | 22 ± 13% | 1.53 ± 0.4 µM | 3.26 ± 0.626 µM | – | –

The remaining lines, values ahead:

Ki [1] | Ki [2] | remaining activity at 10 µM [3, 5] | remaining activity at 40 µM ([3]; CK1δ residual activity) | IC50 [3] | Ki [4] | melting point | % Residual Activity at 10 μM ± sd ([3]; CK1δ residual activity, compound at 10 μM, 10 µM) | SMILES
> 30 µM | 0.432 ± 0.025 µM | 26 ± 7.6% | 46 ± 31% | 4.76 ± 0.3 µM | 0.718 ± 0.149 µM | – | – | c1ccc(CNc2nc(NCc3nc4ccccc4[nH]3)c3ncn(C4CCCC4)c3n2)cc1 [Compound 16, N^6-((1H-benzo[d]imidazol-2-yl)methyl)-N^2-benzyl-9-cyclopentyl-9H-purine-2,6-diamine]
> 30 µM | > 30 µM | 38 ± 6% | 29 ± 3.9% | 3.37 ± 2.5 µM | > 30 µM | – | – | O=C(NCc1ccccc1)Nc1nc(Cl)nc2c1ncn2C1CCCC1 [Compound 18, 1-Benzyl-3-(2-chloro-9-cyclopentyl-9H-purin-6-yl)urea]
20.7 ± 1.87 µM | 14.8 ± 3.01 µM | 23 ± 2.4% | 44 ± 2.6% | 2.55 ± 0.2 µM | 13.5 ± 0.98 µM | – | – | COC(=O)CNc1nc(Cl)nc2c1ncn2C1CCCC1 [Compound 19, Methyl (2-chloro-9-cyclopentyl-9H-purin-6-yl)glycinate]
> 30 µM | – | 32 ± 16% | 29 ± 12% | 1.87 ± 0.2 µM | > 30 µM | – | – | O=C(CNc1nc(Cl)nc2c1ncn2C1CCCC1)NCc1ccccc1 [Compound 20]
8.66 ± 1.52 µM | 5.96 ± 1.02 µM | 13 ± 24% | 25 ± 9.6% | 0.36 ± 0.1 µM | 3.48 ± 0.312 µM | – | – | N#CCNc1nc(Cl)nc2c1ncn2C1CCCC1 [Compound 21, 2-((2-Chloro-9-cyclopentyl-9H-purin-6-yl)amino)acetonitrile]
10.8 ± 2.04 µM | – | 31 ± 12% | 14 ± 4.3% | 1.69 ± 1 µM | 2.65 ± 0.381 µM | – | – | Clc1ccc(CCNc2nc(Cl)nc3c2ncn3C2CCCC2)cc1 [Compound 25, 2-Chloro-N-(4-chlorophenethyl)-9-cyclopentyl-9H-purin-6-amine]
